We go through one compound from patent publication US10744181B2, “Glycopeptide derivatives for use in the treatment and/or prevention and/or attenuation of fibrosis diseases” (TFCHEM, priority 2017, dated 2020).

Marks after values point to notes of the source that are not given here.

Common to all, as to type: cell-based, human
One assay relates to Collagen III. Put plainly: Collagen III synthesis (ELISA) in normal fibroblasts. The settings on record: normal fibroblasts (NF), compound at 9.4 mM, 48 hours; ng collagen III per mg proteins. On the procedure: (§1) Primary cultures of keloid fibroblasts (KF) and normal fibroblasts (NF) were obtained from operative wastes (keloid and abdominoplasty). After thawing, cells were grown in Dulbecco's modified Eagle's medium (DMEM) supplemented with 10% of fetal calf serum, 40 mg/l of gentamicin and 2 mg/l of fungizone (DMEMc), in an incubator at 37° C., 5% CO2. Culture medium was changed twice a week and cells were subcultured by trypsinization when confluence was reached. Cells were used under 10 passages.
(§2) Compound 1 was directly diluted in culture medium at 5 mg/ml.
(§3) Fibroblasts were seeded in 6 wells culture plate at the concentration of 0.08·10^6 cells/well (n=6). […]
(§4) The synthetized collagen quantity is expressed as the ratio of quantity of collagen vs quantity of total proteins in the sample.
(§5) The quantity of total protein was determined using a biochemical test, the bicinchoninic acid assay (BCA assay). […] Absorbance is read immediately at 550 nm (Spectrophotometer Multiscan Ex, Thermo). The standard curve is drawn and the sample protein concentration is determined with this curve. […]
Collagen III synthesis is performed by Enzyme-linked immunosorbent assay with an ELISA kit (USCN SEA576Hu, Euromedex). […] The enzyme-substrate reaction is terminated by the addition of sulfuric acid solution and the color change is measured spectrophotometrically at 450 nm. […]
(§6) Data are expressed as mean+/−sem. […]
For orientation: In an ELISA, binding on a coated surface is turned into a signal by an enzyme label.

Assay [1] has as its system collagen I/collagen III ratio. Put plainly: Collagen I/collagen III ratio in normal fibroblasts. The settings on record: normal fibroblasts (NF), compound at 9.4 mM. On the procedure: as §1, §2
Fibroblasts were seeded in 6 wells culture plate at the concentration of 0.08·10^6 cells/well (n=6). After 48 hours of culture, wells were washed with 3 ml of PBS. 2 ml of each solution of tested compound were added per wells. […]
as §4
Collagen I synthesis was evaluated by Enzyme-linked immunosorbent assay with an ELISA kit (USCN SEA571Hu, Euromedex). […] The enzyme-substrate reaction is terminated by the addition of sulfuric acid solution and the color change is measured spectrophotometrically at 450 nm. The concentration of collagen I in the samples is then determined by comparing the optical density of the samples to the standard curve. The results were expressed as pg of collagen I by mg of proteins. […]

Another assay concerns Collagen I. Put plainly: Collagen I synthesis (ELISA) in normal fibroblasts. The settings on record: normal fibroblasts (NF), compound at 9.4 mM, 48 hours; pg collagen I per mg proteins. As to the method: as §1, §2, §3, §4, §5
Collagen I synthesis was evaluated by Enzyme-linked immunosorbent assay with an ELISA kit (USCN SEA571Hu, Euromedex). […] The enzyme-substrate reaction is terminated by the addition of sulfuric acid solution and the color change is measured spectrophotometrically at 450 nm. […]
as §6

In the case of `C[C@H](NC(=O)[C@H](C)NC(=O)[C@@H](N)CCCCNCC(F)(F)[C@]1(O)O[C@H](CO)[C@H](O)[C@H](O)[C@H]1O)C(=O)O` [Compound 1], the “Protein Collagen III, Mean” value in the assay on Collagen III was 6.57*** ng/mg. Moreover, the “Ratio collagen I/collagen III” value in assay [1] was 4.39.10^−3. Further, the “Protein Collagen I, Mean” value in the assay on Collagen I is recorded as 28.85*** pg/mg.
